Patent EP4772500A1, “NOVEL ISOXAZOLE COMPOUND AS TM4SF5-SPECIFIC INHIBITOR AND USE THEREOF” (Seoul National University R&DB Foundation, priority 2023, dated 2025)

Legend:
[1] = test system: TM4SF5-expressing cells (SNU449T7); assay: Western blotting for signaling factors whose phosphorylation increases in a TM4SF5-expression dependent manner; assay type: cell-based, human; details: for phosphorylation of FAK, STAT3, c-Src, S6K1, Akt, and p27 / phosphorylation of FAK, c-Src, STAT3, p27, S6K1, and AKT: given concentrations; for phosphorylation of FAK, c-Src, STAT3, p27, S6K1, AKT, and STAT5: 24 hours (FIG. 9a-b)
Procedure: Cell extracts were obtained from cells grown to a density of 70-80% without any treatment, or from cells treated with vehicle DMSO or drugs at the given concentrations for 24 hours. For the extract of hepatocytes or liver cancer cells, a lysis buffer (150 mM NaCl, 1% NP-40, 50 mM Tris-HCl, 0.25% sodium deoxycholate, pH 7.4) including a protease inhibitor cocktail (GenDEPOT) was used. In addition, after washing animal liver tissue twice with PBS, SDS, Na3VO4, and protease inhibitor cocktails (GenDEPOT) were added to a lysis buffer [50 mM Tris-HCl, pH 7.4, 1% NP40, 0.25% sodium deoxycholate, 150 mM NaCl, 1 mM EDTA (based on 500 ml)], followed by treatment at 4°C for 15 minutes. After centrifugation at 13,000 rpm at 4°C for 30 minutes, only the supernatant was transferred to a new microcentrifuge tube. After quantification using BCA reagent (Thermo Scientific), a 4 × sample buffer [100% glycerol 4 ml, Tris-HCl, pH 6.8, 2.4 ml, SDS 0.8 g, Bromophenol blue 4 mg, betamercaptoethanol 0.4 ml, H2O 3.1 ml (based on 10 ml)] was added, followed by boiling at 100°C for 5 minutes. After performing SDS-PAGE electrophoresis with the above samples and transferring them to Nitrocellulose Membranes Protran™ nitrocellulose membranes (Whatman), pre-treatment was performed with 5% skim milk for 1 hour. After pre-treatment, primary antibodies of p-FAK(Y861) (SC-16663), p-FAK(Y577) (SC-16665), c-Src (SC-8056), STAT3 (SC-8019), p-AKT 1/2/3(S473) (SC-7985), STATS (SC-835), Laminin γ2 (SC-393225), COL1A1 (SC-28657), CCL5(RANTES) (SC-514019) CCL20(MIP-3α) (SC-517441), SIRT1 (SC-74465), ChREBP (SC-515922), SREBP1 (SC-366513), DGAT1 (SC-271934), DGAT2 (SC-293211), MICA/B (SC-137242), SLAMF7 (SC-390840), α-tublin (SC-5286), β-actin (SC-47778), FUCA (SC-365496) (the above from Santa Cruz Biotech, USA), p-FAK(Y397) (cat # 611723), FAK (cat # 610088), p27 (cat # 610242) (the above from BD Transduction, USA), p-FAK(Y925) (#3284) p-c-Src(Y416) (#2101), p-STAT3(Y705) (#9145), p70S6K1 (#9202), p-p70S6K1(T389) (#9205), p-STAT5(Y694) (#9314), ACC (#3676), FASN (#3189), CPT1A (#12252), p-ACC(S79) (#11818), HA (#3724), PD-L1 (#13684), PD-1 (#86163), p-ERK1/2(T202/Y204) (#9101s), ERK1/2 (#9102s) (the above from Cell Signaling Tech., USA), pS10p27(S10) (ab62364), human SLAMF6 (ab224201), TIGIT (ab233404), CD34 (ab81289) (the above from Abcam, UK), mouse SLAMF6 (PA5-87823), NKG2D (PA5-102038) (the above from Thermofisher, USA), α-SMA (Sigma Aldrich, A5228), CCL2 (Invitrogen, MA5-17040), and CD155(PVR) (Biolegend, 337601), HA (Biolegend, USA), Strep-HRP(horse-radish peroxidase), StrepMAB-HRP (IBA, USA), AFP (FineTest, FNab00203) were reacted at 4°C for 15 hours. The next day, secondary antibodies were reacted, and development was performed on X-ray film using ECL (Pierce, USA). Anti-TM4SF5C-ter (epitope region of RKKQDTPH^197) and anti-TM4SF5EC2 (CLMNGEWGYHFEDTAGA^130) were custom-made at a professional antibody production company (Pro-Sci, Poway, CA, USA).
Cell extracts were obtained before and after treating TM4SF5-non-expressing cells (SNU449Cp) and TM4SF5-expressing cells (SNU449T7) with ST-1-024 or ST-1-025 drugs at the given concentrations for 24 hours, and Western blotting was performed for signaling factors whose phosphorylation and activity increase in a TM4SF5-expression dependent manner.
(a) Cell extracts were obtained after treating TM4SF5-non-expressing cells (SNU449Cp) and TM4SF5-expressing cells (SNU449T7) with vehicle (DMSO), TSAHC, or isoxazole compounds ST-2-001, ST-2-002, ST-2-003, ST-2-004, ST-2-005, ST-2-006, ST-2-007, ST-2-008, ST-2-009, ST-2-010, or ST-2-011 at a dose of 5 µM (for 24 hours). Using these, Western blotting was performed for signaling factors whose phosphorylation and activity increase in a TM4SF5-expression dependent manner. […]

[2] = test system: TM4SF5-expressing cells (SNU449T7); assay: 3D sphere growth/proliferation; assay type: cell-based, human; details: for survival/proliferation of the spheres: given concentrations on the 0, 3, 6, and 9th days, observed 10th day (FIG. 12b-c); for degree of cell proliferation (spheres): 2.5 µM on the 0 and 3rd days, observed 6th day (FIG. 5b); for cell proliferation inhibitory effect: 0.5 or 2.5 µM (FIG. 10a, b), comparison among drugs
Procedure: TM4SF5-non-expressing cells (SNU449Cp) and TM4SF5-expressing cells (SNU449T7) of the same number (200 cells/well or 1000 cells/well) were added per well into Costar Ultra-Low Attachment Multiple Well Plates (CORNING), and were then treated with vehicle (DMSO) or drugs at various concentrations and cultured in a cell incubator under conditions of 37°C and 5% CO2. After repeatedly treating with the same concentrations of drugs every few days at regular intervals as indicated from the date of cell culture, the proliferation of the cells (spheres) was observed and photographed using an optical microscope on the last day of observation.
The drugs treated were the positive control drug TSAHC or the ST-1-025 isoxazole compound at the given concentrations. From the time of starting culture (0 day), (FIG. 3a) in the case of 2D culture, the number of cells was measured after treating with the drug every 24 hours, or (FIG. 3b) in a 3D environment, the proliferation of cells (spheres) was observed and photographed with an optical microscope on the 5th and 7th days after a single drug treatment at the start of culture. […]

[3] = SNU449T7, given concentrations, 24 hours (FIG. 2)
[4] = single treatment at 5 µM at start of culture, observed 5th and 7th days (FIG. 3b)
[5] = 0.1 or 1.0 µM, observed 10th day (FIG. 10c)
[6] = 0.5 or 2.5 µM, observed 6th or 10th day (FIG. 10a, b)

Cc1ccc(C(=O)Nc2ccc(-c3cc(-c4ccc(O)cc4)no3)cc2)cc1 [ST-5-002, N-(4-(3-(4-hydroxyphenyl)isoxazole-5-yl)phenyl)-4-methylbenzamide]
phosphorylation inhibitory efficacy ([1]; drug with improved purity (FIG. 12d)): maintained and further improved | phosphorylation of FAK, STAT3, c-Src, S6K1, Akt, and p27 ([1]; 24 hours (FIG. 12d)): inhibited | survival/proliferation of the spheres [2]: inhibited

COc1ccc(-c2cc(-c3ccc(N)cc3)no2)cc1 [ST-1-025, 4-(5-(4-methoxyphenyl)isoxazole-3-yl)aniline]
phosphorylation of FAK, c-Src, STAT3, and p27 [1, 3]: decreased | degree of sphere proliferation ([2]; repeated treatment at given concentrations on the 0, 5, and 6th days, observed 7th day (FIG. 3c)): inhibited by ST-1-025 in a concentration-dependent manner, albeit slightly | degree of sphere proliferation [2, 4]: inhibited, albeit slightly

COc1ccc(-c2cc(-c3cccc(NC(C)=O)c3)no2)cc1 [ST-3-011, N-(3-(5-(4-methoxyphenyl)isoxazole-3-yl)phenyl)acetamide]
phosphorylation of FAK, c-Src, STAT3, p27, S6K1, AKT, and STAT5 ([1]; 5 µM): decreased | phosphorylation of FAK, c-Src, STAT3, p27, S6K1, and AKT ([1]; 24 hours (FIG. 9c)): decreased in a concentration-dependent manner | degree of three-dimensional cell proliferation [2, 5]: decreased | degree of three-dimensional cell proliferation [2, 6]: inhibited

Cc1ccc(S(=O)(=O)Nc2ccc(C(=O)/C=C/c3ccc(O)cc3)cc2)cc1 [TSAHC, 4'-(p-toluenesulfonylamino)-4-hydroxychalcone, reference compound]
phosphorylation of FAK, c-Src, STAT3, and p27 ([1]; 5 µM, 24 hours (FIG. 5a)): decreased | phosphorylation of FAK, c-Src, STAT3, and p27 [1, 3]: decreased | phosphorylation of FAK, c-Src, STAT3, p27, S6K1, and AKT ([1]; 24 hours (FIG. 5c)): decreased in a drug concentration-dependent manner | degree of cell proliferation (spheres) [2]: inhibited | degree of sphere proliferation [2, 4]: inhibited, albeit slightly

CC(=O)Nc1ccc(-c2cc(-c3ccc(O)cc3)no2)cc1 [ST-5-001, N-(4-(3-(4-hydroxyphenyl)isoxazole-5-yl)phenyl)acetamide]
phosphorylation of FAK, STAT3, c-Src, S6K1, Akt, and p27 ([1]; 24 hours (FIG. 12d)): inhibited | survival/proliferation of the spheres [2]: inhibited

COc1ccc(-c2cc(-c3ccc(NC(C)=O)cc3)no2)cc1 [ST-2-001, N-(4-(5-(4-methoxyphenyl)isoxazole-3-yl)phenyl)acetamide]
phosphorylation of FAK, c-Src, STAT3, and p27 ([1]; 5 µM, 24 hours (FIG. 5a)): decreased | phosphorylation of FAK, c-Src, STAT3, p27, S6K1, AKT, and STAT5 ([1]; 5 µM): decreased | phosphorylation of FAK, c-Src, STAT3, p27, S6K1, and AKT ([1]; 24 hours (FIG. 5c)): decreased in a drug concentration-dependent manner | phosphorylation of FAK, c-Src, STAT3, p27, S6K1, and AKT ([1]; 24 hours (FIG. 9c)): decreased in a concentration-dependent manner | phosphorylation of FAK, STAT3, c-Src, S6K1, Akt, and p27 ([1]; 24 hours (FIG. 12a)): inhibited in many cases including STAT3, S6K1, and FAK | phosphorylation of FAK, STAT3, c-Src, S6K1, Akt, and p27 ([1]; 24 hours (FIG. 12d)): inhibited | degree of cell proliferation (spheres) [2]: inhibited | cell proliferation inhibitory effect [2]: strong | degree of three-dimensional cell proliferation [2, 6]: inhibited | survival/proliferation of the spheres [2]: inhibited

CC(=O)Nc1ccc(-c2cc(-c3ccc(F)cc3)on2)cc1 [ST-3-006, N-(4-(5-(4-fluorophenyl)isoxazole-3-yl)phenyl)acetamide]
phosphorylation of FAK, c-Src, STAT3, p27, S6K1, AKT, and STAT5 ([1]; 5 µM): decreased | phosphorylation of FAK, c-Src, STAT3, p27, S6K1, and AKT ([1]; 24 hours (FIG. 9c)): decreased in a concentration-dependent manner | degree of three-dimensional cell proliferation [2, 5]: decreased | cell proliferation inhibitory effect [2]: strong | degree of three-dimensional cell proliferation [2, 6]: inhibited
